According to patent US9771585B2, “miR-155 inhibitors for treating cutaneous T cell lymphoma (CTCL)” (miRagen Therapeutics, Inc., priority 2015, dated 2017):
l = locked nucleic acid (LNA); d = 2'-deoxy (DNA)

Columns and labels:
Format in all cases: cell-based, human
miR-155 = assay: Dual luciferase reporter assay with miR-155 binding site in HeLa cells; details: 2 nM oligonucleotide, 10 nM miR-155 mimic, 50 ng reporter
Text: To assess the activity of a miR-155 inhibitor, a dual luciferase reporter assay system was used. In brief, the binding site for miR-155 was cloned into the 3′ UTR of the Renilla luciferase gene located within the commercially-available psiCHECK-2 vector system (Promega). In the absence of a miR-155 inhibitor, the expression of Renilla luciferase protein is repressed by a miR-155 mimic. In the presence of a miR-155 inhibitor, the expression of Renilla luciferase protein is de-repressed. […] Expression of either Renilla or firefly luciferase is measured through detection of light emitted by the luciferase protein.
50 ng of the dual luciferase reporter plasmid containing the miR-155 binding site was transfected into HeLa cells without a miR-155 mimic (“Reporter” only), with 10 nM miR-155 mimic (“Reporter+mimic”), with 10 nM miR-155 mimic and 2 nM of the control oligonucleotide, or with 10 nM miR-155 mimic and 2 nM of a test miR-155 oligonucleotide inhibitor of 11-14 nucleotide lengths (Table 4). The miR-155 mimic was purchased from Dharmacon (miRIDIAN microRNA Human hsa-miR-155-5p mimic; Accession number MIMAT0000646; catalog # C-300647-05-0005) and contains the mature miRNA sequence: -[…]-(SEQ ID NO: 121). The control oligonucleotide used in the experiment had the following sequence: 5′-1Cs.dTs.dAs.1Gs.dAs.1As.dAs.1Gs.1As.dGs.1Ts.dAs.1Gs.1A-3′ (SEQ ID NO: 122).

miR-155-5p [1] = assay: Real time PCR of miR-155 direct target genes (four-gene signature) in mycosis fungoides cell lines MJ, HuT102, My-La; details: for gene expression signature of four direct miR-155-5p targets versus untreated cells: MJ and HuT102 cells, 10 μM, 72 hours; for target de-repression: both HuT102 and MyLa cell lines, compared to compound 3; for antimiR activity by four-gene signature (Bach1, Jarid2, Picalm, Ship1): cumulative across 2, 10 and 50 μM and three mycosis fungoides cell lines, compared to compounds 1 and 3
Method: CTCL cell lines were cultured in complete growth medium with the addition of antimiR-155 compound 1 (SEQ ID NO: 27), compound 2 (SEQ ID NO: 22), compound 3 (SEQ ID NO: 23), and compound 4 (SEQ ID NO: 25) at concentrations ranging from 2 μM to 50 μM. The antimiRs were added to the medium without any additional components to enhance cellular uptake. Cells were harvested after 72 hours of treatment and total RNA was purified. Real time PCR was performed for 13 direct gene targets of miR-155 (Worm et al. 2009; O'Connell et al. 2010; Zhang et al. 2012; and miRagen unpublished data). The relative fold-change in the expression of the 13 genes in the antimiR-treated cells compared to the untreated cells was calculated. […] Four predicted direct targets that lacked expression in at least one cell line were omitted. The gene expression fold-changes were log10-transformed, plotted on a grayscale, representing the highest relative increase in gene expression, and conversely, the greatest reduction in gene expression.
Four direct gene targets of miR-155-5p (Bach1, Jarid2, Picalm, and Ship1) were chosen for additional analysis, as these four genes were modulated by antimiR-155 in all three mycosis fungoides cell lines (MJ, HuT102, and My-La). These genes were chosen to represent the gene expression signature for antimiR activity in vitro. Additionally, the four-gene signature was used to compare the activity of the antimiR compounds. These gene changes were reproducible over three independent experiments with cells of varying passage numbers. FIGS. 3, 4, 5, 6, and 7 show the fold-change results of this four-gene signature in the HuT102, MJ, HH, My-La, and Hut78 cell lines, respectively. * p-value <0.0001 vs untreated by nonparametric Mann-Whitney test. The Mann-Whitney test was chosen because the variances are unequal between the treatments compared to untreated cells.
The control oligonucleotide was a 14-nucleotide antimiR targeting a C. elegans miRNA not expressed in mammals (control 1). The second oligo is a scramble of the 14-nucleotide sequence of antimiR-155 compound 4 (control 2). The MJ and HuT102 cell lines were incubated with 10 μM antimiR-155 compounds 3 (SEQ ID NO: 23) or 4 (SEQ ID NO: 25) or the two control oligos for 72 hours.

miR-155-5p [2] = assay: Whole genome expression profiling of mycosis fungoides cell lines (MJ, HuT102, MyLa)
Method: To gain a more complete understanding of the molecular consequences of miR-155 inhibition in mycosis fungoides cell lines, whole genome transcriptome profiling was performed on MJ and HuT102 cell lines treated with antimiR-155 compounds 3 (SEQ ID NO: 23) or 4 (SEQ ID NO: 25) for 4 days (96 hours) or 8 days. The statistically-significant gene expression signature was defined by one-way ANOVA for antimiR-treated cells compared to untreated cells at the same time point. […] The fold-change results are shown in FIGS. 9 and 10 as heat maps, as described for FIG. 2.
(§1) The activity of antimiR-155 compound 4 (SEQ ID NO: 25) was further investigated by treating the third mycosis fungoides cell line, MyLa, with compound 4 (SEQ ID NO: 25) for 4 days and 8 days and profiling the changes in gene expression. To test the specificity of compound 4 (SEQ ID NO: 25), cells of the Sézary syndrome cell line (HuT78) were treated with compound 4 (SEQ ID NO: 25) for 8 days and the changes in gene expression were profiled. Genes that are statistically changed with a false discovery rate (FDR) corrected p-value of <0.05 in response to compound 4 (SEQ ID NO: 25) in three mycosis fungoides cell lines, HuT102, MJ, and My-La, are depicted in the heat map as described above. The total number of genes in the heat map is 324.

miR-155-5p [3] = assay: Whole genome expression profiling of Sézary syndrome cell line HuT78; details: 8 days
Method: as §1

HuT102 cells [4] = assay: Proliferation (cell number by ATP level) of HuT102 cells; details: HuT-102 cells over time; compared with bexarotene
Method: (§2) Since the level of ATP correlates directly with cell number, ATP was measured to determine the cell number. […] The reduction in cell number was accompanied by an increase in apoptosis as measured by caspase 3/7 activity (FIG. 14B). The caspase 3 and 7 proteins are members of the cysteine aspartic acid-specific protease (caspase) family. The caspase family plays key effector roles in apoptosis in mammalian cells. Caspase activity was normalized to ATP levels, as all cells have a low level of basal caspase activity that can confound the results if not normalized appropriately.

HuT102 cells [5] = assay: Apoptosis (caspase 3/7 activity) in HuT102 cells
Method: as §2
HuT102 cells were treated with 0.25 μM SAHA and 10 μM compound 3 (SEQ ID NO: 23) or 4 (SEQ ID NO: 25), individually or in combination. Cells were harvested daily to measure ATP levels and caspase 3/7 activity. A similar experiment was performed with 0.50 μM SAHA.

My-La cells [6] = assay: Proliferation of My-La cells; details: compared to compound 3
Text: (§3) FIGS. 17A and 17B show proliferation and activation of caspase 3/7 over time with compounds 3 (SEQ ID NO: 23) and 4 (SEQ ID NO: 25).

My-La cells [7] = assay: Caspase 3/7 activity in My-La cells; details: compared to compound 3
Text: as §3

[8] = tested on: HuT102 and MyLa cell lines; assay: Cellular proliferation of CTCL cells after passive uptake; details: compared to compound 3
Method: (§4) Passive uptake of antimiR-155 compounds by CTCL cells produced a significant reduction in cellular proliferation and induced programmed cell death.
as §2

[9] = tested on: HuT102 and MyLa cell lines; assay: Programmed cell death (apoptosis) of CTCL cells after passive uptake; details: compared to compound 3
Method: as §4, §2

Row | Substance | gene expression signature of four direct miR-155-5p targets versus untreated cells (miR-155-5p [1]) | target de-repression (miR-155-5p [1]) | antimiR activity by four-gene signature (Bach1, Jarid2, Picalm, Ship1) (miR-155-5p [1]) | inhibition of proliferation [8] | apoptotic activity [9] | other results
1 | 5′-1Cs.dTs.dAs.1Gs.dAs.1As.dAs.1Gs.1As.dGs.1Ts.dAs.1Gs.1A-3′ (CTAGAAAGAGTAGA; LNA/DNA mix, phosphorothioate backbone; miR-155 control oligo 11317; (1)..(14) May be joined through phosphorothioate bonds; modified_base (1)..(1) May be locked nucleic acid cytidine; modified_base (4)..(4) May be locked nucleic acid guanosine; modified_base (6)..(6) May be locked nucleic acid adenosine; modified_base (8)..(8) May be locked nucleic acid guanosine; modified_base (9)..(9) May be locked nucleic acid adenosine; modified_ba) [control oligonucleotide, control oligonucleotide used in the dual luciferase reporter experiment] | – | – | – | – | – | de-repression of Renilla luciferase expression (miR-155): did not de-repress the expression of luciferase
2 | 5′-lCs.dAs.lCs.dGs.dAs.lTs.lTs.dAs.lGs.dCs.lAs.lTs.lTs.lA-3′ (CACGATTAGCATTA; sugars from the 5' end ldlddlldldllll, all phosphorothioate, methylation of C not given here) [compound 4] | statistically significantly different from that of untreated cells | greater target de-repression | more active | greater inhibition of proliferation | greater apoptotic activity | genes up-regulated or down-regulated in all three mycosis fungoides cell lines (miR-155-5p [2]; Day 4 and Day 8 signatures combined, Table 2): 587 genes; magnitude of gene regulation (miR-155-5p [2]; MJ and HuT102, day 4 and day 8, heat map intensity): greater magnitude of gene regulation; change in gene expression (miR-155-5p [3]): did not show much change in the gene expression; effect on cell number (ATP) (HuT102 cells [4]): comparable to that seen with bexarotene; apoptosis (caspase 3/7 activity) in combination with SAHA (HuT102 cells [5]; HuT102, 10 μM compound combined with 0.25 or 0.5 μM SAHA, compared to each treatment alone): increased apoptosis; induction of apoptosis (caspase 3/7 activity normalized to ATP) (HuT102 cells [5]; HuT-102 cells over time, compared with bexarotene): greater induction of apoptosis than bexarotene; proliferation over time (My-La cells [6]): greater activity; activation of caspase 3/7 over time (My-La cells [7]): greater activity
3 | 5′-lCs.dGs.lAs.lTs.lTs.dAs.lGs.dCs.lAs.lTs.lTs.lA-3′ (CGATTAGCATTA; sugars from the 5' end ldllldldllll, all phosphorothioate, methylation of C not given here) [compound 3] | statistically significantly different from that of untreated cells | – | – | – | – | –
4 | 5′-lCs.dGs.lAs.lTs.lTs.lAs.lGs.dCs.lAs.lTs.lTs.lA-3′ (CGATTAGCATTA; sugars from the 5' end l1 d1 l5 d1 l4, all phosphorothioate, methylation of C not given here) [compound 2] | – | greater target de-repression | more active | greater inhibition of proliferation | greater apoptotic activity | –
